Measurements taken from PubChem BioAssay (NCI).
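Five compound concentrations were applied to cells in 96-well plates for 48 hours; endpoints were derived by simple linear interpolation of the resulting dose-response curve. GI50: concentration for 50% inhibition of growth. TGI denotes the concentration required for complete inhibition of growth.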

Key:
Experiment in all cases: NCI anticancer screen, dose series, 48 h
[1] = tested on: T-47D breast
[2] = tested on: MCF7 breast
[3] = tested on: DU-145 prostate
[4] = tested on: NCI/ADR-RES ovarian
[5] = tested on: NCI-H460 lung
[6] = tested on: M14 melanoma
[7] = tested on: MDA-MB-231 breast
[8] = tested on: OVCAR-4 ovarian
[9] = tested on: RXF 393 renal
[10] = tested on: MDA-MB-435

SMILES | GI50 [1] | TGI [1] | GI50 [2] | TGI [2] | GI50 [3] | TGI [3] | GI50 [4] | TGI [4] | GI50 [5] | TGI [5] | GI50 [6] | TGI [6] | GI50 [7] | TGI [7] | GI50 [8] | TGI [8] | GI50 [9] | TGI [9] | GI50 [10] | TGI [10]
CCOc1ccn(-c2ccc(F)cc2)c(=O)c1C(=O)Nc1ccc(Oc2ccnc(N)c2Cl)c(F)c1 | 11.8 µM | 98 µM | 7.89 µM | > 100 µM | 21.1 µM | > 100 µM | 13.6 µM | > 65.7 µM | 4.74 µM | > 87 µM | 3.74 µM | 16 µM | 6.33 µM | 23.9 µM | 19.1 µM | > 100 µM | 7.06 µM | 36.8 µM | 6.27 µM | 42.6 µM
O=C1C=CC(=O)c2c(O)c3c(c(O)c21)C[C@H](O)[C@H](O)[C@@H]3O | – | 4 µM | – | 3.49 µM | – | 6.87 µM | – | 8.16 µM | – | 16.8 µM | – | 3.86 µM | – | 6.08 µM | – | 3.45 µM | – | 3.43 µM | – | 3.13 µM
Cc1cc(-c2cc(O)ccc2Cl)cc2nnc(Nc3ccc(OCCN4CCCC4)cc3)nc12 | 1.66 µM | 3.95 µM | 0.179 µM | 0.356 µM | 0.206 µM | 0.419 µM | 0.682 µM | 1.61 µM | 0.579 µM | 1.12 µM | 0.326 µM | 1.19 µM | 0.299 µM | 0.967 µM | 0.615 µM | 1.3 µM | 1.2 µM | 2.61 µM | 0.175 µM | 0.321 µM
C=CCC(N[C@H](CO)c1ccccc1)c1cn(Cc2ccccc2Cl)c(=O)n(Cc2ccccc2Cl)c1=O (stereo not given in full) | > 100 µM | > 100 µM | 16.4 µM | 68.7 µM | 23.5 µM | 95.5 µM | 9.26 µM | > 100 µM | 18.3 µM | > 100 µM | 6.19 µM | 23.1 µM | 3.74 µM | 21.5 µM | 26.6 µM | > 100 µM | 8.48 µM | 23.6 µM | 15.9 µM | 38.6 µM
CCOC(=O)C(C#N)C1=CC(=O)C(=O)c2ccc(O)cc21 (stereo not given) | – | > 100 µM | – | > 100 µM | – | > 100 µM | – | > 100 µM | – | > 100 µM | – | 51.3 µM | – | > 100 µM | – | > 100 µM | – | > 100 µM | – | 39.9 µM
CC1(C)CCCC(C)(C2CCC3(C)C2C(O)CC2C4(C)CCC(O)C(C)(C)C4CCC23C)O1 (stereo not given) | – | > 100 µM | – | > 100 µM | – | > 100 µM | – | > 100 µM | – | > 100 µM | – | > 100 µM | – | > 100 µM | – | > 100 µM | – | 30.9 µM | – | > 100 µM
Clc1ccccc1-c1nnc2c(Cc3ccccc3)nc3ccccc3n12 | 5.77 µM | > 100 µM | 34 µM | > 100 µM | 55.1 µM | > 100 µM | 12.7 µM | > 100 µM | 3.18 µM | > 100 µM | > 60.5 µM | > 100 µM | 7.09 µM | > 100 µM | 5.55 µM | > 100 µM | 3.29 µM | > 100 µM | > 100 µM | > 100 µM
CCCCCC/C=C\CCCCCCCCCC1=C(CN2CCN(C)CC2)C(=O)C=C(OC)C1=O | – | 4.81 µM | – | 11.6 µM | – | 26.2 µM | – | 11.5 µM | – | 23.2 µM | – | 7.73 µM | – | 25.9 µM | – | 3.8 µM | – | 6.72 µM | – | 21.1 µM
CC1=CC(C)(C)NN1C1=NS(=O)(=O)c2ccccc2N1C | – | > 100 µM | – | > 100 µM | – | > 100 µM | – | > 100 µM | – | > 100 µM | – | > 100 µM | – | > 100 µM | – | > 100 µM | – | > 100 µM | – | > 100 µM
Cn1cc(-c2cnn3c(N)c(Br)c(C4CCCNC4)nc23)cn1 (stereo not given) | 19.6 µM | > 100 µM | 13.7 µM | > 68.6 µM | 3.2 µM | 65 µM | 8.36 µM | > 100 µM | 6.54 µM | 30.7 µM | 0.325 µM | 16.8 µM | 5.53 µM | 40 µM | 14.6 µM | 96.1 µM | 0.257 µM | 0.799 µM | 0.754 µM | > 57.8 µM
C/C(=C(\c1ccc(OCCN2CCCCCC2)cc1)c1ccc(OC(=O)c2ccccc2)cc1)c1ccc(Cl)cc1 | 1.76 µM | 7.47 µM | 0.348 µM | 5.94 µM | 5.41 µM | 11.3 µM | 4.56 µM | 11.2 µM | 2.5 µM | 7.44 µM | 0.92 µM | 3.33 µM | 4.9 µM | 9.96 µM | 3.6 µM | 9.82 µM | 3.71 µM | 8.18 µM | 4.24 µM | 8.87 µM
C/C=C1/CC(C)C(C)(O)C(=O)OCC2C(O)CN3CCC(OC1=O)C23 (stereo not given) | – | > 100 µM | – | > 100 µM | – | > 100 µM | – | > 100 µM | – | > 100 µM | – | > 100 µM | – | > 100 µM | – | > 100 µM | – | > 100 µM | – | > 100 µM
